The values that follow come from paper PMC12638514, “Identification of Novel β‐Lactam Derivatives as Proteasome Inhibitors for Antitumor Therapy” (Archiv Der Pharmazie, 2025).

Experiment [1] relates to rabbit 20S proteasome β5 (CT‐L). Set-up: method as in PMID 24452398, PMID 21946808. The settings on record: Figure 2; cited from earlier work.
Experiment [2] relates to MV‐4‐11 cells. Put plainly: Cell proliferation inhibition assay (CCK8), MV‐4‐11. Format: cell-based. The note with it: Homo sapiens, MV4-11, 72 h, mean ± SD. Here is the method: (§1) MV‐4‐11 cells (1 × 10^4 cells/well), RPMI‐8226 cells (8 × 10^3 cells/well), Molt4 cells (2 × 10^3 cells/well), RS4;11 cells (2 × 10^4 cells/well), and PBMC cells (2 × 10^4 cells/well) were seeded in 96‐well plates (Corning, 3599). Cells were treated with either 0.2% DMSO or fivefold dilutions of compounds from 10 mM stock solutions in DMSO (0.2% final concentration of DMSO) for 72 h. 10 μL of CCK8 reagent was added to each well, and the plates were incubated at 37°C for 3 h. Absorbance was measured at 450 nm and 650 nm using a Spectra Max Molecular Devices microplate reader. The final data were calibrated by OD450 nm‐OD650 nm.

The subject of experiment [3] is RPMI‐8226 cells. The experiment can be described thus: Cell proliferation inhibition assay (CCK8), RPMI‐8226. Format: cell-based. The note with it: Homo sapiens, 72 h, mean ± SD. Here is the method:
as §1

The subject of experiment [4] is Molt4 cells. The experiment can be described thus: Cell proliferation inhibition assay (CCK8), Molt4. Format: cell-based. The settings on record: Homo sapiens, MOLT-4, 72 h, mean ± SD. The protocol:
as §1

In experiment [5] the test system is RS4;11 cells. Put plainly: Cell proliferation inhibition assay (CCK8), RS4;11. Format: cell-based, human. The note with it: mean ± SD. Here is the method: as §1
Experiment [6] relates to normal peripheral blood mononuclear cells (PBMC). The experiment can be described thus: Cell proliferation inhibition assay (CCK8), PBMC. The settings on record: 72 h, mean ± SD, read-out: IC50 PBMC‐3Day. Format: cell-based. The protocol:
as §1

The target in experiment [7] is T1, human constitutive proteasome, β5 subunit (CT‐L) (Homo sapiens, UniProt P20618+P28074).
T1 construct: gift of Dr. Jiang-ping Wu (Notre-Dame Hospital, Montreal)
The experiment can be described thus: In vitro 20S proteasome chymotrypsin‐like (CT‐L, β5) inhibition assay. The experiment is classed as biochemical. The note with it: CT‐L activity, substrate Suc‐LLVY‐AMC; mean ± SD of three independent experiments. The protocol:
(§2) The human constitutive proteasome was generously provided by Dr. Jiang‐ping Wu (Notre‐Dame Hospital, Montreal, QC, Canada). […] The proteasome activity assay was performed in a total volume of 50 μL, with all samples diluted in Tris–HCl buffer (100 mM Tris–HCl, pH 8.0). […] 10 μL purified human proteasome (25 μg/mL) was added to 1 μL of each compound; after incubation for 15 min, the mixture was combined with 39 μL of the fluorogenic substrate. […] The IC50 values were calculated using the software GraphPad Prism4, employing the “sigmoidal dose–response (variable slope)” equation for curve fitting.

In experiment [8] the target is proteasome β1 subunit (C‐L) (Homo sapiens, UniProt P28072+Q99436). Put plainly: Proteasome caspase‐like (C‐L, β1) inhibition. The settings on record: C‐L activity; mean ± SD of three independent experiments. Format: biochemical. The protocol:
as §2

Experiment [9] concerns the target proteasome β2 subunit (T‐L) (Homo sapiens, UniProt P49720+Q99436). The experiment can be described thus: Proteasome trypsin‐like (T‐L, β2) inhibition. The experiment is classed as biochemical. The note with it: T‐L activity; mean ± SD of three independent experiments. Here is the method:
as §2

The subject of experiment [10] is RS4;11 cells. The experiment can be described thus: Apoptosis assay by flow cytometry. Format: cell-based, human. The note with it: 1, 2 and 4 μM, 12 h. Here is the method: (§3) Apoptosis was assessed using an Annexin V‐APC/7AAD apoptosis detection kit (GA1023‐KGA1026, Keygentec, Nanjing, China), followed by flow cytometry analysis. Briefly, cells were treated with the indicated drug concentration and durations or left untreated, then washed twice with PBS, stained with Annexin V‐APC/7AAD, and analyzed using flow cytometry (CytoFLEX flow cytometer, Beckman Coulter Inc.). RS4;11 cells were exposed to various concentrations of the compound or DMSO. Protein lysates were prepared using 4 × Laemmli sample buffer (161073, BIORAD, Richmond, USA). Protein samples were separated by SDS‐polyacrylamide gel electrophoresis (BIO‐RAD, Richmond, USA) and subsequently transferred to nitrocellulose (NC) membranes. Following a 90‐min blocking step with 5% skim milk at room temperature, the NC membranes were incubated with the primary antibody at 4 °C overnight, followed by three washes with TBST for 10 min each. The NC membranes were then incubated with secondary antibodies for 1.5 h at room temperature. Signals were detected by ECL (KF8001&KF8003, Affinity, China) using the BIO‐RAD ChemiDoc Touch Imaging System.

Experiment [11] deals with RS4;11 cells. The experiment can be described thus: Western blot of apoptosis‐related and ubiquitinated proteins. The experiment is classed as cell-based, human. Here is the method:
as §3

`CC[C@H](C)[C@@H]1C(=O)O[C@H]1C(=O)NCCC[C@H](NC(=O)[C@H](C)N)C(=O)O` [Belactosin C]: the half-inhibitory concentration (IC50) in [1] was 210 nM.
As for `CC(C)C[C@H](NC(=O)[C@H](Cc1ccccc1)NC(=O)c1cnccn1)B(O)O` [Bortezomib, reference compound], the IC50 in experiment [2] worked out at 5.15 ± 1.09 nM; in [3], 3.64 ± 0.52 nM; in experiment [4] it was 13.3 ± 2.47 nM; in experiment [5] (Homo sapiens, RS4-11, 72 h), 5.87 ± 0.93 nM; in [6] it was 1.57 ± 0.19 nM.
Regarding `CC(C)(C)CNC(=O)C[C@H](NC(=O)c1cnccn1)C(=O)N[C@@H](CCc1ccccc1)C(=O)N[C@@H]1CN(c2ccc(F)cc2)C1=O` [Compound 68], the concentration for half-maximal inhibition (IC50) in experiment [7] was over 10000 nM.
As to `CC(C)(C)CNC(=O)C[C@H](NC(=O)c1cnccn1)C(=O)N[C@@H](CCc1ccccc1)C(=O)N[C@H]1CN(c2ccc(F)cc2)C1=O` [Compound 69], the IC50 in experiment [7] is 288 ± 57.2 nM; in [8], over 10000 nM; in experiment [9] it was over 10000 nM; in experiment [2] it was over 20000 nM; in experiment [3] it was 10200 ± 760 nM; in experiment [4], over 10000 nM. Moreover, inhibition in [5] (Homo sapiens, RS4-11, 72 h) was half-maximal at 1520 ± 670 nM (IC50).
In experiment [7], `C[C@H](NC(=O)c1cccnc1)C(=O)N[C@@H](CCc1ccccc1)C(=O)N[C@@H]1CN(c2ccc(F)cc2)C1=O` [Compound 70] yielded an IC50 of over 10000 nM.
The same measure, in the same setting: the figure for `C[C@H](NC(=O)c1cnccn1)C(=O)N[C@@H](CCc1ccccc1)C(=O)N[C@@H]1CN(c2ccc(F)cc2)C1=O` [Compound 71] is over 10000 nM; for `CC(C)[C@H](NC(=O)c1cccnc1)C(=O)N[C@@H](CCc1ccccc1)C(=O)N[C@@H]1CN(c2ccc(F)cc2)C1=O` [Compound 72] it is over 10000 nM; for `O=C(N[C@@H](CCc1ccccc1)C(=O)N[C@@H](CCc1ccccc1)C(=O)N[C@@H]1CN(c2ccc(F)cc2)C1=O)c1cccnc1` [Compound 73] it is over 10000 nM.
In the case of `O=C(N[C@@H](Cc1ccccc1)C(=O)N[C@@H](CCc1ccccc1)C(=O)N[C@@H]1CN(c2ccc(F)cc2)C1=O)c1cccnc1` [Compound 74], the IC50 in experiment [7] is over 10000 nM.
In [7], `CSCC[C@H](NC(=O)c1cccnc1)C(=O)N[C@@H](CCc1ccccc1)C(=O)N[C@@H]1CN(c2ccc(F)cc2)C1=O` [Compound 75] came in with an IC50 of over 10000 nM.
As for `Cc1ccc(N2C[C@@H](NC(=O)[C@H](CCc3ccccc3)NC(=O)[C@H](CC(=O)NCC(C)(C)C)NC(=O)c3cccnc3)C2=O)cc1` [Compound 76, (S)‐N ^4‐Neopentyl‐2‐(nicotinamido)‐N ^1‐[(S)‐1‐oxo‐1‐{[(R)‐2‐oxo‐1‐(p‐tolyl)azetidin‐3‐yl]amino}‐4‐phenylbutan‐2‐yl]succinamide], the IC50 in [7] is 72 ± 14.9 nM; in experiment [8], over 10000 nM; in experiment [9], over 10000 nM; in experiment [2], over 20000 nM; in [3] it was 8050 ± 1170 nM; in [4], over 10000 nM. Also, in experiment [5] (Homo sapiens, RS4-11, 72 h), the IC50 is 860 ± 240 nM.
On to `CN(C)c1ccc(N2C[C@@H](NC(=O)[C@H](CCc3ccccc3)NC(=O)[C@H](CC(=O)NCC(C)(C)C)NC(=O)c3cccnc3)C2=O)cc1` [Compound 77, (S)‐N ^1‐[(S)‐1‐{[(R)‐1‐[4‐(Dimethylamino)phenyl]‐2‐oxoazetidin‐3‐yl]amino}‐1‐oxo‐4‐phenylbutan‐2‐yl]‐N ^4‐neopentyl‐2‐(nicotinamido)succinamide], for which the figures for the IC50 in experiment [7], in experiment [8] and in [9] were 132 ± 14.8 nM, over 10000 nM and over 10000 nM, respectively.
In the case of `COc1ccc(N2CC(NC(=O)C(CCc3ccccc3)NC(=O)C(CC(=O)NCC(C)(C)C)NC(=O)c3cccnc3)C2=O)cc1` [Compound 78, (S)‐N ^1‐[(S)‐1‐{[(R)‐1‐(4‐Methoxyphenyl)‐2‐oxoazetidin‐3‐yl]amino}‐1‐oxo‐4‐phenylbutan‐2‐yl]‐N ^4‐neopentyl‐2‐(nicotinamido)succinimide], the IC50 in experiment [7] was 142 ± 30.1 nM; in [8], over 10000 nM; in experiment [9], over 10000 nM; in experiment [2], 2780 ± 410 nM; in experiment [3], 2340 ± 340 nM; in [4], 3780 ± 270 nM. The concentration for half-maximal inhibition (IC50) in experiment [5] (72 h) was 500 ± 130 nM; in [5] (Homo sapiens, RS4-11, 72 h), under 1000 nM; in experiment [6], 17200 ± 1930 nM. The “induction of apoptosis in RS4;11 cells” value in experiment [10] was “triggered cell apoptosis in a dose‐dependent manner”. Moreover, the “activation and cleavage of caspase‐3 and PARP” value in [11] (RS4;11, 1, 2 and 4 μM, 8 h, western blot) is “detectable across all samples”. Moreover, the “accumulation of poly‐ubiquitinated proteins” value in experiment [11] (RS4;11, western blot) is “significant accumulation of poly‐ubiquitinated proteins”.
For the molecule `CC(C)(C)CNC(=O)C[C@H](NC(=O)c1cccnc1)C(=O)N[C@@H](CCc1ccccc1)C(=O)N[C@@H]1CN(c2ccc(C(F)(F)F)cc2)C1=O` [Compound 79, (S)‐N ^4‐Neopentyl‐2‐(nicotinamido)‐N ^1‐[(S)‐1‐oxo‐1‐{[(R)‐2‐oxo‐1‐[4‐(trifluoromethyl)phenyl]azetidin‐3‐yl]amino}‐4‐phenylbutan‐2‐yl]succinamide], the concentration for half-maximal inhibition (IC50) in experiment [7] was 282 ± 33.6 nM; in [8], over 10000 nM; in experiment [9], over 10000 nM; in experiment [2] it was 2750 ± 460 nM; in experiment [3], 3440 ± 440 nM; in experiment [4], 2370 ± 230 nM. For the same molecule, in experiment [5] (Homo sapiens, RS4-11, 72 h), the IC50 worked out at 990 ± 170 nM.
